Test results published in patent US12569500B2, “Combination comprising tricycle compound and use thereof in preparation of medicament for treating HBV” (FUJIAN AKEYLINK BIOTECHNOLOGY CO., LTD., priority 2020, dated 2026).

Columns and labels:
[1] = Single agent cytotoxicity, CellTiter-Glo; format: cell-based; conditions: human, HepG2.2.15 cells
Description: (§1) Cell line: HepG2.2.15 cells are constructed and provided by WuXi AppTec. The cell culture medium is DMEM/F12 medium supplemented with 2% fetal bovine serum, 2 mM glutamine, 1×non-essential amino acids, 100 U/mL penicillin and 100 µg/mL streptomycin.
2.1.1 On the first day, HepG2.2.15 cells were seeded into a 96-well cell culture plate at a density of 60,000 cells/well, and then the cells were cultured overnight at 5% CO2 and 37° C. On the second day, the compound 1 and the compound of formula (IIb) and the compound of formula (IIIb) were diluted and added to a 96-well plate. Each combination was a three-fold plate. The cells were cultured under 5% CO2 and 37° C. for 3 days. On the 5th day, a new culture medium containing the compound was replaced, and the supernatant was collected on the 8th day. The HBsAg in the supernatant was detected by ELISA, and the DNA in the supernatant was extracted at the same time, and the content of HBV DNA in the supernatant was detected by quantitative PCR. After collecting the cell supernatant, add CellTiter-Glo to detect cell viability.

HepG2.2.15 cells = experiment: Cytotoxicity of the compounds in combination, CellTiter Glo; format: cell-based
Description: as §1
2.2.1 On the first day, HepG2.2.15 cells were seeded into a 96-well cell culture plate at a density of 60,000 cells/well, and then the cells were cultured overnight at 5% CO2 and 37° C. On the second day, different concentrations of compounds were added to treat the cells. Compounds were diluted in gradients, 7×7 concentration combinations, and 3 replicate plates were tested in parallel. The compound concentration tested for joint activity is based on the EC50 value of each compound. The 7 concentration gradients are approximately: 2×, 1×, ½×, ¼×, ⅛×, 1/16× and 1/32×EC50. The compound concentration of the combined activity test experiment is shown in Table 8, and the combination drug arrangement is shown in Table 9. On the 5th day, replace the fresh culture medium containing the compound. On the 8th day, the culture supernatant was collected, DNA was extracted, and the content of HBV DNA was detected by quantitative PCR. At the same time, CellTiter Glo reagent was used to detect cell viability and MacSynergy software was used to analyze the combined effect of the two drugs.

## Cc1cc2n(c1)S(=O)(=O)c1ccc(C(=O)NCC[C@H]3COCCO3)cc1NC2=O [Compound 1]
[1]
  CC50 at 6 days: > 1000 nM
HepG2.2.15 cells; Compound 1 0.1875 nM + formula (IIIb) 0 nM
  average cell viability percentage: 110.07%
HepG2.2.15 cells; Compound 1 0.1875 nM + formula (IIb) 0 nM
  average cell viability percentage: 109.29%
HepG2.2.15 cells; Compound 1 0.375 nM + formula (IIIb) 0 nM
  average cell viability percentage: 112.42%
HepG2.2.15 cells; Compound 1 0.375 nM + formula (IIb) 0 nM
  average cell viability percentage: 109.88%
HepG2.2.15 cells; Compound 1 0.75 nM + formula (IIIb) 0 nM
  average cell viability percentage: 111.36%
HepG2.2.15 cells; Compound 1 0.75 nM + formula (IIb) 0 nM
  average cell viability percentage: 106.91%
HepG2.2.15 cells; Compound 1 1.5 nM + formula (IIIb) 0 nM
  average cell viability percentage: 111.96%
HepG2.2.15 cells; Compound 1 1.5 nM + formula (IIb) 0 nM
  average cell viability percentage: 105.37%
HepG2.2.15 cells; Compound 1 3 nM + formula (IIIb) 0 nM
  average cell viability percentage: 112.58%
HepG2.2.15 cells; Compound 1 3 nM + formula (IIb) 0 nM
  average cell viability percentage: 104.39%
HepG2.2.15 cells; Compound 1 6 nM + formula (IIIb) 0 nM
  average cell viability percentage: 112.45%
HepG2.2.15 cells; Compound 1 6 nM + formula (IIb) 0 nM
  average cell viability percentage: 103.50%
HepG2.2.15 cells; Compound 1 12 nM + formula (IIIb) 0 nM
  average cell viability percentage: 111.17%
HepG2.2.15 cells; Compound 1 12 nM + formula (IIb) 0 nM
  average cell viability percentage: 102.08%
